Test results reported in ChEMBL document CHEMBL1131809, “1-[(Benzofuran-2-yl)phenylmethyl]-triazoles and -tetrazoles - potent competitive inhibitors of aromatase” (Bioorg Med Chem Lett, 1999).

Molecular target: T1, Aromatase (Homo sapiens, UniProt P11511)
T1 sequence (P11511 whole entry): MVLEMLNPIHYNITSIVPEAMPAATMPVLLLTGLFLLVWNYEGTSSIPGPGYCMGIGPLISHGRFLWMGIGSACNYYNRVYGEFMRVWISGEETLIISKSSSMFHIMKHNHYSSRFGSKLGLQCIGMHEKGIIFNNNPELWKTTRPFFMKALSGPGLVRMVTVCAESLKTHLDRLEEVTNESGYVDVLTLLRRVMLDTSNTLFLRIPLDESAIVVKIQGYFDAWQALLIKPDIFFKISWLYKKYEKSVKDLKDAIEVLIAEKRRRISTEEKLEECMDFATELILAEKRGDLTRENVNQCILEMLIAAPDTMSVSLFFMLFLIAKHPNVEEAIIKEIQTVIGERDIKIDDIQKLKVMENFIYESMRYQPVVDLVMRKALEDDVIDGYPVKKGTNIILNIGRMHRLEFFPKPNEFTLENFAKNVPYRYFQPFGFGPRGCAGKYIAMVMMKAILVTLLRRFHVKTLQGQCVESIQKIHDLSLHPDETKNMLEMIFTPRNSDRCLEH
Description: Inhibition of human placental aromatase, cytochrome P450 19A1 at 20 uM

| inhibition at 20 µM [%] | Structure (SMILES) |
| --- | --- |
| 85.7 | c1ccc(C(c2cc3ccccc3o2)n2cncn2)cc1 (stereo not drawn) |
| 67.2 | Cc1ccc(C(c2cc3ccccc3o2)n2cnnn2)cc1 (stereo not drawn) |
| 14.4 | O=[N+]([O-])c1ccc2oc(C(c3ccccc3)n3cnnn3)cc2c1 (stereo not drawn) |
